We go through twelve molecules from patent publication US7642280B2, “Inhibitors of acyl glucosaminyl inositol amidase and methods of use” (The Regents of the University of California, priority 2001, dated 2010).

Read-outs that look alike come from different tables or passages of the source.

For assay [1], the target named is Mycobacterium smegmatis mycothiol-S-conjugate amidase (MCA) (Mycolicibacterium smegmatis, UniProt A0R2W9). In words: Fluorescence-based HPLC IC50 assay, wild type M. smegmatis MCA with natural MSmB. Type of assay: biochemical.
Assay [2] deals with M. tuberculosis MCA (Mycobacterium tuberculosis, UniProt P9WJN1). The assay is described as follows: biochemical.
Assay [3] addresses mycothiol S-conjugate amidase (MCA) (Mycolicibacterium smegmatis, UniProt A0R2W9). The assay is described as follows: Fluorescence-detected HPLC assay of MCA cleavage of MSmB (50 μM MSmB as substrate), Examples 1 and 3. It is filed as biochemical.
Where [4] appears, read: recombinant M. tuberculosis MCA approx. 20 nM, 30 μM synthetic MSmB, 20 min, 31° C., read-out: IC50 M. tb.
The mark [5] stands for this setting: wild type M. smegmatis MCA approx. 20 nM, 30 μM natural MSmB, 20 min, 31° C., read-out: IC50 M. smeg.
The mark [6] stands for this setting: 50 μM MSmB as substrate, read-out: concentration that inhibited mycothiol S-conjugate amidase by 50%.

Sequence of M. tuberculosis MCA (P9WJN1 whole entry): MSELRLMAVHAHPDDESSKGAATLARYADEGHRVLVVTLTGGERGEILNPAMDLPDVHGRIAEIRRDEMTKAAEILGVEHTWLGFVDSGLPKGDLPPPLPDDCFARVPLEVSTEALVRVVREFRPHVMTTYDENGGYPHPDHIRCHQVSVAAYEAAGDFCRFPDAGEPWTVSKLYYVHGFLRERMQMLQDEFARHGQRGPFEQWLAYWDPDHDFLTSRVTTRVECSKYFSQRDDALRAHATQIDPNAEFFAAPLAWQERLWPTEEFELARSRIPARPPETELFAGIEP
Sequence of mycothiol S-conjugate amidase (MCA) (A0R2W9 whole entry): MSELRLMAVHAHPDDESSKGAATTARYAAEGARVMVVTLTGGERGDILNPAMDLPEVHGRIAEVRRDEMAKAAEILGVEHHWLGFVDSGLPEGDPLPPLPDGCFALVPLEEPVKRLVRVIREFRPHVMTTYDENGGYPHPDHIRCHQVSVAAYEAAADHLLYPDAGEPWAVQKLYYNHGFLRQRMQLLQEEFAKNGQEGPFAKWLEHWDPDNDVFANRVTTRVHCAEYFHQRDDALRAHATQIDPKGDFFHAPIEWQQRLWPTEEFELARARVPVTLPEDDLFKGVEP
Sequence of Mycobacterium smegmatis mycothiol-S-conjugate amidase (MCA) (A0R2W9 whole entry): as above

On to `COC1=C(Br)[C@@H](O)[C@]2(C=C1Br)CC(C(=O)NCCc1[nH]c(N)nc1-c1cc(O)c3ncc(O)c(O)c3c1O)=NO2` [Compound 1], for which the figures for the IC50 in assay [1], in assay [2] (setting [4]) and in assay [3] were 2 µM, 3 µM and 2 µM, respectively.

As to `COC1=C(Br)C[C@]2(OC=C1Br)ON=C(C(=O)NCCCOc1c(Br)cc(C(O)CN)cc1Br)[C@@H]2O` (stereo partly shown) [Compound 4, psammaplysin B], the IC50 in assay [1] (setting [5]) was determined as 20 µM; in assay [2] (setting [4]) it was 30 µM; in assay [3] (setting [6]), 3 µM.

Regarding halisulfate 1 [Compound 11], in assay [1] (setting [5]), the IC50 was found to be 40 µM.

With oceanapiside aglycon [Compound 8], the IC50 in assay [2] (setting [4]) stood at 20 µM.

Consider `CN1C(=O)[C@]23CC4=CC=C[C@H](O)[C@H]4N2C(=O)[C@@]1(CO)SS3` [Compound 12, Gliotoxin], for which the IC50 in assay [1] (setting [5]) and in assay [2] was 30 µM each time.

As to `COC1=C(Br)[C@@H](O)[C@]2(C=C1Br)CC(C(=O)NCCc1cnc(N)[nH]1)=NO2` [Compound 2, Pseudoceratine], the IC50 in assay [1] (setting [5]), in assay [2] (setting [4]) and in assay [3] (setting [6]) was 100 µM in each case.

In the case of Oceanapiside [Compound 7], the IC50 in assay [1] (setting [5]) is 0.5 µM; in assay [2] (setting [4]), 10 µM; in assay [3] (50 μM MSmB as substrate, read-out: IC50 amidase inhibition (Example 3, FIG. 6)) it was 5 µM.

Suvanine [Compound 10]: in assay [1] (setting [5]), the IC50 is 60 µM.

On to `CS[C@]1(CO)C(=O)N2[C@H]3C(=CC=C[C@@H]3O)C[C@@]2(SC)C(=O)N1C` [Compound 13, S,S-dimethyl gliotoxin], for which the IC50 in assay [1] (setting [5]) was 280 µM.

For `O=c1c(O)c[nH]c2c(O)ccc(O)c12` [uranidine, reference compound], the “inhibitory activity against MCA (in words)” value in assay [3] (50 μM MSmB as substrate, absence of cleavage product AcCys-bimane) is listed as “ineffective”.

On to psammaplysin A [Compound 3], for which the IC50 in assay [1] (setting [5]) and in assay [2] (setting [4]) was 30 µM each time.

For `COc1cc(O)c2c(c1)C(=O)c1cc(C)cc(O)c1C2=O` [Compound 14, Physcion], in assay [1] (setting [5]), the IC50 turned out to be 50 µM.
